In PubChem BioAssay AID1902 (Broad Institute, 2009):
Active and inactive are the calls of the source.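 Rule for the calls: active = EC50 no more than a set limit of log units above the highest dose; inactive = the rest.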

Target: S. pyogenes SKKanGAS, kanamycin survival, BacTiterGlo, 6 h
Test: SKKanGAS survival reduction under kanamycin, dose response, streptokinase promoter inhibitor project, SKKanGAS strain, luminescence, dose confirmation (AID 1902);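 note: lower survival reflects blocked streptokinase promoter driving kanamycin resistance gene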

| SMILES | EC50 |
| --- | --- |
| CN(C)CCOc1ccc(/C(=C(/CCCl)c2ccccc2)c2ccccc2)cc1 | 4.95 µM |
| COC(=O)c1ccc(CN(c2ccc(C(=O)O)c(O)c2)S(=O)(=O)c2ccc(Cl)c([N+](=O)[O-])c2)cc1 | 2.63 µM |
| CCC(CC)NC(=O)c1oc2ccccc2c1COc1ccccc1 | 13 µM |
| O=[N+]([O-])c1ccc(O)c(/C=N/Nc2nc3ccccc3[nH]2)c1 | 0.589 µM |
| Cc1ccc(NC(=O)c2cc(N3C(=O)C=CC3=O)ccc2N2CCOCC2)cc1Cl | 11.5 µM |
| O=C(Nc1ccc2c(c1)CCC2)c1cc(S(=O)(=O)Nc2ccc(F)cc2)c(Cl)cc1Cl | 4.04 µM |
| COC(=O)c1cc(C(=O)Nc2nc3ccccc3[nH]2)cc([N+](=O)[O-])c1 | 8.85 µM |
| Cc1[nH]c2ccccc2c1C(c1ccccn1)c1c(C)[nH]c2ccccc12 | 8.63 µM |
| COc1ccc(-c2cc(C(F)(F)F)nc(NCc3cccs3)n2)cc1 | 4.95 µM |
| Cc1ccc(Nc2nc3ccccc3[nH]2)nc1 | 1.28 µM |
| Clc1ccc(-c2nnnn2-c2ccc(Cl)c(Cl)c2)cc1Cl | 8.09 µM |
| Nc1[nH]n2c(=O)c3c(nc2c1N=Nc1ccc(Cl)cc1)CCCC3 | 6.13 µM |
| Cc1ccc(Nc2nc3nonc3[nH]c2=O)cc1Cl | 2.54 µM |
| O=C(CNc1cccc2ccccc12)N/N=C/c1ccc([N+](=O)[O-])o1 | 1.12 µM |
| CCc1ccc(-c2ccc3nnc(SCC(N)=O)n3n2)cc1 | 1.66 µM |
| Cc1oc(C(C)(C)C)cc1C(=O)N1CCN(C(c2ccccc2)c2ccccc2)CC1 | 2.89 µM |
| C=C(C)COc1ccc(-c2nc(N)ncc2-c2ccc(Cl)cc2)c(O)c1 | 5.69 µM |
| Cc1cccc(NC(=O)NCc2ccc3c(c2)OCO3)c1 | > 15 µM (inactive) |
| Nc1nc(NC(=O)/C=C/c2ccc(F)cc2)nn1-c1ccccc1 | 2.62 µM |
| CCOc1ccc(NS(=O)(=O)c2cc(NC(=O)c3ccc(C)cc3)ccc2Cl)cc1 | 3.72 µM |
| CCN(c1ccccc1)S(=O)(=O)c1ccc(C(=O)Nc2nnc(CSC)o2)cc1 | 3.7 µM |
| CCN(c1ccc(C)cc1C)S(=O)(=O)c1nnc(NC(=O)c2ccco2)s1 | 4.2 µM |

| SMILES | EC50 |
| --- | --- |
| Cn1c(=O)c(C(=O)NNC(=O)c2ccccc2Br)c(O)c2ccccc21 | 7.51 µM |
| COCC1CCCCN1C(=O)c1ccc2oc(CCCc3ccccc3)nc2c1 (stereo not drawn) | > 15 µM (inactive) |
| NS(=O)(=O)c1ccc(N2N=C(c3ccccc3)CC2c2ccc(F)cc2)cc1 (stereo not drawn) | 5.28 µM |
| CCC(C)c1ccc(C2C3=C(Nc4nc(N)[nH]c(=O)c42)c2ccccc2C3=O)cc1 (stereo not drawn) | 3.71 µM |
| N#CCSc1nc2ccc(N3CCOCC3)cc2c(=O)n1CCc1ccccc1 | 3.71 µM |
| COc1ccccc1/C=N\Nc1cc(C)nc(-n2nc(C)cc2C)n1 | 6.26 µM |
| CC(C)c1ccc(-n2cccc2/C=C2/C(=N)N3C=CSC3=NC2=O)cc1 | 3.28 µM |
| O=C(N/N=C/c1ccccc1O)c1ccc2c(c1)OCO2 | 2.76 µM |
| COc1ccc(CN(C)S(=O)(=O)c2ccc3c(c2)OCCO3)cc1 | > 15 µM (inactive) |
| CCc1ccc(S(=O)(=O)/N=C2\C=C(Nc3ccc(O)cc3)C(=O)c3ccccc32)cc1 | 1.51 µM |
| CCOC(=O)c1sc(NC(=O)Nc2cccc(Cl)c2)cc1C | 2.39 µM |
| CC(NS(=O)(=O)OCC(Cl)(Cl)Cl)c1ccc(C(C)(C)C)cc1 (stereo not drawn) | 4.64 µM |
| Cc1cccc(C)c1NC(=S)N/N=C/c1ccc(OCCC(C)C)cc1 | 2.49 µM |
| O=C(CN1c2ccccc2Sc2ccccc21)NNC(=S)Nc1ccc(Cl)cc1 | 2.67 µM |
| C(=N\Nc1ncnc2sc3c(c12)CCC3)/c1cccs1 | 10.2 µM |
| CC1=Nc2ccccc2/C1=C/c1sc(=N)n(-c2nccs2)c1O | 0.452 µM |
| O=C1NC(=O)/C(=C\c2ccccc2OCc2ccccc2)S1 | 10.3 µM |
| COc1ccc(OC)c(N=Cc2c(O)n(Cc3ccccc3)c(=S)[nH]c2=O)c1 | > 15 µM (inactive) |
| Fc1ccc(Cn2cccc2C2=NC(c3ccccc3)CO2)cc1 (stereo not drawn) | 7.34 µM |
| Clc1ccc(-c2ccc(/C=N/Nc3cc(N4CCOCC4)nc(N4CCOCC4)n3)o2)cc1 | 15.7 µM |
| O=C(N/N=C/c1ccccc1O)NC12CC3CC(CC(C3)C1)C2 | 8.68 µM |
| Cc1cc(/C=N/n2cnnc2)c(C)n1-c1ccc(OCc2ccc(Cl)cc2)cc1 | 6.19 µM |

| SMILES | EC50 |
| --- | --- |
| O=C(/C=C/c1ccccc1)NC(=S)NNC(=O)Cc1cccs1 | 1.47 µM |
| Brc1ccc(C2C3=C(Nc4ncnn42)c2ccccc2OC3c2ccncc2)cc1 (stereo not drawn) | 10.1 µM |
| COc1ccc(/C=C/C(=O)NC(=S)NNC(=O)c2ccco2)cc1 | 1.67 µM |
| CCc1noc(C)c1C(=O)OCC(=O)NC(=O)c1ccccc1 | > 15 µM (inactive) |
| CCS(=O)(=O)N1Cc2ccccc2CC1C(=O)Nc1nnc(SCc2ccc(F)cc2)s1 (stereo not drawn) | 2.35 µM |
| O=C(COC(=O)Cc1cn2ccsc2n1)Nc1nc2ccccc2s1 | 2.51 µM |
| S=C(NCCSCc1ccc(Cl)c(Cl)c1)Nc1ccccc1 | 3.71 µM |
| CCC1CCCCN1S(=O)(=O)c1ccc(C(=O)Nc2nnc(C3CC3)o2)cc1 (stereo not drawn) | 2.23 µM |
| CC(C)=CCOc1ccc([C@@H]2COc3c(ccc4c3C=CC(C)(C)O4)C2)c(O)c1 | 1.83 µM |
| CC1CCN(c2nc(CN3CCCCC3)nc3scc(-c4ccccc4)c23)CC1 | 3.02 µM |
| NC(=S)N/N=C/c1ccc(C23CC4CC(CC(C4)C2)C3)cc1 | 3.91 µM |
| CCOc1cc(/C=N/Nc2cc(C)nc(-n3nc(C)cc3C)n2)ccc1O | 0.853 µM |
| c1ccc(OCc2nc3c4c(ncn3n2)-c2ccccc2CC42CCCC2)cc1 | 11.7 µM |
| CCC1(C)Cc2c(sc3nc(SC)[nH]c(=S)c23)CO1 (stereo not drawn) | 1.87 µM |
| CCCCC(=O)NC(c1ccc(Cl)cc1Cl)c1ccc2cccnc2c1O (stereo not drawn) | 1.97 µM |
| CC12CCC(C(=O)N(CSC(=S)N/N=C\c3ccccc3O)C1=O)C2(C)C (stereo not drawn) | 2.55 µM |
| COc1ccc(CCNC(=O)c2ccc(CNS(=O)(=O)c3ccc(C(C)(C)C)cc3)cc2)cc1OC | 7 µM |
| O=C(N/N=C/c1cc([N+](=O)[O-])ccc1O)C(O)(c1ccccc1)c1ccccc1 | 6.17 µM |
| CCOC(=O)/C(=N\Nc1ccc(Cl)cc1)c1csc(Nc2ccccc2)n1 | 1.77 µM |
| FC(F)(F)Oc1ccc(NC(=S)Nc2ccc(OC(F)(F)F)cc2)cc1 | 6.49 µM |
| CC(C)C[C@H](NC(=O)c1nc[nH]c1C(=O)NCc1ccccc1)C(=O)OCc1ccccc1 | 5.01 µM |
| O=C(O)c1ccc(N2CCCCS2(=O)=O)cc1 | > 15 µM (inactive) |

| SMILES | EC50 |
| --- | --- |
| Cc1cccc(NC2=Nc3ccccc3N3C2=Nc2c(c(C)nn2-c2ccccc2)C3c2ccc(O)c(O)c2)c1 (stereo not drawn) | 4.54 µM |
| Cc1ccc(-c2[nH]nc(N)c2N=Nc2ccccc2C)cc1 | 1.07 µM |
| O=C(NC(NC(=S)Nc1c(Cl)cccc1Cl)C(Cl)(Cl)Cl)OCc1ccccc1 (stereo not drawn) | 2.5 µM |
| Cc1cccc(CSc2nc(N)c(C#N)c(-c3cccs3)c2C#N)c1 | 4.77 µM |
| CC(C)OC(=O)c1c2nc3ccccc3nc2n2c1[nH]c(=O)c1ccccc12 | 0.91 µM |
| Cc1nc(-n2[nH]c3c(c2=O)CCCC3)[nH]c(=O)c1Cc1ccccc1 | 1.39 µM |
| CC(=O)Nc1nc2ccccc2n1CCOc1ccccc1 | 11.3 µM |
| Oc1c(Cl)cc(Cl)c(Cl)c1Cc1c(O)c(Cl)cc(Cl)c1Cl | 0.202 µM |
| c1ccc(-c2onc(-c3ccco3)c2-c2ccc3[nH]ccc3c2)cc1 | 4.2 µM |
| CN(C)/C=C1\SC(=S)N(c2ccc(Br)cc2)C1=O | 5.37 µM |
| COc1ccc(-c2sc3ccccc3c2C#CC2(O)CCCCC2)cc1 | 4.58 µM |
| CNC(=O)C(=O)NCC1OCCN1S(=O)(=O)c1ccc(OC)c(OC)c1 (stereo not drawn) | > 15 µM (inactive) |
| Cc1cc(Oc2ccc(Cl)cc2)nc(-c2ccccc2O)n1 | > 15 µM (inactive) |
| CCCCCc1ccc(OCCCC[n+]2ccccc2)c(CCCCC)c1 | 7.07 µM |
| O=C(CCCN1C(=O)/C(=C\c2cccs2)SC1=S)Nc1cc([N+](=O)[O-])ccc1O | 5.04 µM |
| CCN1/C(=C/C(C)=C/c2sc3ccccc3[n+]2CC)Sc2ccccc21 | 2.03 µM |
| CCCCn1c(=O)c(C(=O)NCCc2ccccc2)c(O)c2ccccc21 | 3.73 µM |
| Oc1ccc(N=Nc2ccc3c(c2)OCCO3)c2cccnc12 | 0.257 µM |
| COc1ccc(/C=C/C(=O)NC(=S)NNC(=O)c2cc(OC)c(OC)c(OC)c2)cc1OC | 1.48 µM |
| O=c1cc(N2CCCCC2)c(-c2ccccc2)nn1Cc1c(Cl)cccc1Cl | 4.69 µM |
| N[C@@H](C(=O)N[C@@H]1C(=O)N2C(C(=O)O)=C(Cl)CS[C@H]12)c1ccccc1 | 0.465 µM |
| Cc1ccccc1Nc1c(-c2ccccn2)nc2c(C)cccn12 | 0.397 µM |

| SMILES | EC50 |
| --- | --- |
| CCCCCCCCCCC[N+](C)(C)CC/C=C1/c2ccccc2Sc2ccc(Cl)cc21 | 2.4 µM |
| CCc1nnc(NC(=O)c2ccc(S(=O)(=O)N(C)c3ccccc3)cc2)o1 | 4.71 µM |
| Cc1ccc2nc(-c3ccc(NS(=O)(=O)c4ccc(F)cc4)cc3)sc2c1 | 3.31 µM |
| CCOC(=O)c1ccc(NC(=O)c2nc[nH]c2C(=O)NCCCCCNC(=O)OC(C)(C)C)cc1 | 2.83 µM |
| Cc1cc(C(=O)Nc2nc(-c3ccccn3)cs2)ccc1[N+](=O)[O-] | 1.69 µM |
| O=C(Nc1ccccc1)Nc1cc(OCC(F)(F)F)cc(OCC(F)(F)F)c1 | 4.78 µM |
| O=[N+]([O-])c1ccc(-c2nc(-c3cccs3)c(-c3cccs3)[nH]2)cc1 | 9.57 µM |
| COCCn1c(SCC(=O)Nc2ccc(F)cc2)nc2c([nH]c3ccccc32)c1=O | > 15 µM (inactive) |
| COc1cc(OC)cc(-c2cc3nc4c(c(N5CCN(c6ncccn6)CC5)n3n2)CCCC4)c1 | 6.28 µM |
| Cc1noc(C)c1C(=O)Nc1ccc2ccccc2c1 | > 15 µM (inactive) |
| N#C/C(=C(/O)c1ccc2c(c1)OCO2)c1nc2cc(C(F)(F)F)ccc2s1 | 2.43 µM |
| O=C(c1cc(-c2ccccc2)n[nH]1)N1CCc2c([nH]c3ccccc23)C1c1ccccn1 (stereo not drawn) | 5.23 µM |
| COC(=O)c1cc(-c2ccc(OC)cc2F)nc2nc(SC)[nH]c(=O)c12 | 2.57 µM |
| O=C(Cc1csc(NC(=O)Nc2cccc(Cl)c2)n1)NCc1ccccn1 | 6.87 µM |
| O=C(O)c1ccc(N/N=C/c2ccc(-c3cc(Cl)ccc3Cl)o2)cc1 | 2.48 µM |
| Cn1c(N)c(C(=O)COC(=O)CCc2c[nH]c3ccccc23)c(=O)n(C)c1=O | 9.68 µM |
| O=C(COc1ccccc1)NNC(=S)NC(=O)c1ccc(Cl)cc1Cl | 0.361 µM |
| C=C(C)COc1ccc(-c2n[nH]c(C)c2-c2ccc(Br)cc2)c(O)c1 | 2.21 µM |
| COc1ccccc1-c1nnc(NC(=O)CCS(=O)(=O)c2ccccc2)o1 | > 15 µM (inactive) |
| O=C1c2ccccc2C(=O)c2[nH]c(=O)[nH]c21 | 9.21 µM |
